Data: patent US20240041830A1, “CIRCULATING BIOMARKERS OF RESPONSE TO PD-1/PD-L1 BLOCKADE AND GSK-3 INHIBITION” (Brown University, priority 2022, published 2024)

Assays:
[1] = system: HCT-116; experiment: Western blot analysis; format: cell-based, human; conditions: 100 ng/mL and 250 ng/mL IFN-γ
Experimental: (§1) Pyroptosis assay. Recombinant Human TNF-α (Cat #300-01A, PeproTech, Rocky Hill, NJ, USA) and Recombinant Human IFN-γ (Cat #300-02, PeproTech, Rocky Hill, NJ, USA) were purchased for use in western blot analysis while rhTRAIL was generated in-house. See Kim et al., J. Biol. Chem., 279, 40044-40052 (2004).
(§2) Western blot analysis. Cells were plated in a 6-well plate and incubated overnight before the spent media was replaced with drugged media. Drug treatment lasted for indicated durations. Protein was extracted using radioimmunoprecipitation (RIPA) assay buffer (Cat #R0278, Sigma-Aldrich, St. Louis, MO, USA) containing cOmplete™, Mini, EDTA-free Protease Inhibitor Cocktail (Cat #4693159001, Roche, Basel, Switzerland) from sub-confluent cells. Denaturing sample buffer was added, samples were boiled at 95° C. for ten minutes, and an equal amount of protein lysate was electrophoresed through NuPAGE™ 4 to 12%, bis-Tris, 1.5 mm, Mini Protein Gels (Invitrogen, Waltham, MA, USA) then transferred to PVDF membranes. The PVDF membrane was blocked with 5% non-fat milk (Sigma-Aldrich, St. Louis, MO, USA) in 1× TTBS. Primary antibodies were incubated with the transferred PVDF membrane in blocking buffer at 4° C. overnight. Secondary antibodies included Goat anti-Rabbit IgG (H+L) Secondary Antibody, HRP (Cat #31460, Invitrogen, Waltham, MA, USA), and Goat anti-Mouse IgG (H+L) Secondary Antibody, HRP (Cat #31430, Invitrogen, Waltham, MA, USA). The signal was detected using Pierce™ ECL Western Blotting Substrate (Cat #32106, Thermo Scientific, Waltham, MA, USA) and a Syngene Imaging System (RRID: SCR_015770).
(§3) Elraglusib uprequlates tumor cell PD-L1 and proapoptotic pathway expression as well as downregulates immunosuppressive/angiogenic protein expression and pro-survival pathways. The inventors performed Western blot analyses on colorectal cancer cells (HCT-116, HT-29) treated with elraglusib over a 72-hour time course. […] The inventors observed increases in PD-L1 expression as the treatment duration increased. To further elucidate the elraglusib-mediated effects on tumor cell survival, the inventors probed for survival factors Bcl-2 and Survivin and noted decreases in protein expression in both cell lines, especially at the later timepoints (forty-eight hours, seventy-two hours). […] HCT116 cells are heterozygous for β-catenin, harboring one wild-type allele and one mutant allele with inactivation of one of the residues phosphorylated by GSK-3β that is frequently mutated in tumors. Kaler, Augenlicht, & Klampfer, PLoS ONE, 7, e45462 (2012). HT-29, KM12C, and SW480 cells harbor APC mutations. Rowan et al., Proc. Natl. Acad. Sci. USA, 97, 3352 (2000).

[2] = system: HT-29; experiment: Western blot analysis; format: cell-based, human; conditions: 100 ng/mL and 250 ng/mL IFN-γ
Experimental: as §1, §2, §3

IFN-γ: Recombinant Human IFN-γ (PeproTech) used in western blot analysis
gasdermin B expression [1]: increase | gasdermin B expression [2]: increase
